According to patent US20260098017A1, “NOVEL AROMATIC RING DERIVATIVE CONTAINING AMIDE SUBSTITUTION AND USE THEREOF” (TIANJIN PHARMACEUTICAL BIOTECHNOLOGY CO., LTD., priority 2022, published 2026):
Read-outs that look alike come from different tables or passages of the source. Marks after values point to notes of the source that are not given here.

Legend:
[1] = target: JAK3 JH1 kinase (Homo sapiens, UniProt P52333); test: JAK3 JH1 enzyme assay in vitro (TR-FRET); format: biochemical
[2] = test system: SD rats; test: Four-week repeat-dose toxicity study in rats; format: in vivo; conditions: rat, 28 days, po bid, 50 mg/kg
Method: Each group contained 10 animals, with an equal number of males and females.
The treatment lasted for four consecutive weeks (28 days).
• Daily clinical observation and body weight measurement; • After the last administration, rats were fasted for more than 16 h, anesthetized on the next day, and blood was collected from abdominal aorta. Tests such as hematology (EDTA-2K anticoagulation), blood biochemistry (serum), coagulation function (separated plasma with sodium citrate anticoagulation) and the like were respectively carried out; • After euthanization of the animals, the tissue organs were dissected and observed in general, and organ weights and coefficients (heart, liver, spleen, kidney, thymus) were determined; • The skin and lung tissues of the administration site were taken for HE staining to observe the changes in epidermal thickness, dermal inflammatory cells and pulmonary lesions.

[3] = test system: imiquimod-induced mouse psoriasis-like model; test: Imiquimod-induced mouse psoriasis-like model (PASI score); format: in vivo; conditions: bid; for Improvement of psoriasis symptoms by oral administration: oral gavage, 10 mg/kg, 25 mg/kg, 50 mg/kg, compared with the model group
[4] = target: Ba/F3 cell line expressing TYK2 (Homo sapiens, UniProt P29597, cells depend on it, form not given); test: In vitro cellular inhibition assay (Ba/F3 cell proliferation, CellTiter-Glo); format: cell-based; conditions: read-out: IC50 (the source's name)
In short: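 Ba/F3 cells dependent on TYK2 were exposed to serially diluted compound, then viability was read by CellTiter-Glo luminescence. Inhibition (%) was calculated from RLU relative to max and min controls, and IC50 was obtained by curve fitting.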

[5] = target: T1, hERG channel (Homo sapiens, UniProt Q12809); test: hERG potassium channel inhibition assay (manual patch clamp); format: cell-based; conditions: HEK-293 cell line stably expressing hERG channel, at the tested concentrations
T1 construct: expressed in transfected cells; host or cells: HEK-293
T1 sequence (Q12809 whole entry): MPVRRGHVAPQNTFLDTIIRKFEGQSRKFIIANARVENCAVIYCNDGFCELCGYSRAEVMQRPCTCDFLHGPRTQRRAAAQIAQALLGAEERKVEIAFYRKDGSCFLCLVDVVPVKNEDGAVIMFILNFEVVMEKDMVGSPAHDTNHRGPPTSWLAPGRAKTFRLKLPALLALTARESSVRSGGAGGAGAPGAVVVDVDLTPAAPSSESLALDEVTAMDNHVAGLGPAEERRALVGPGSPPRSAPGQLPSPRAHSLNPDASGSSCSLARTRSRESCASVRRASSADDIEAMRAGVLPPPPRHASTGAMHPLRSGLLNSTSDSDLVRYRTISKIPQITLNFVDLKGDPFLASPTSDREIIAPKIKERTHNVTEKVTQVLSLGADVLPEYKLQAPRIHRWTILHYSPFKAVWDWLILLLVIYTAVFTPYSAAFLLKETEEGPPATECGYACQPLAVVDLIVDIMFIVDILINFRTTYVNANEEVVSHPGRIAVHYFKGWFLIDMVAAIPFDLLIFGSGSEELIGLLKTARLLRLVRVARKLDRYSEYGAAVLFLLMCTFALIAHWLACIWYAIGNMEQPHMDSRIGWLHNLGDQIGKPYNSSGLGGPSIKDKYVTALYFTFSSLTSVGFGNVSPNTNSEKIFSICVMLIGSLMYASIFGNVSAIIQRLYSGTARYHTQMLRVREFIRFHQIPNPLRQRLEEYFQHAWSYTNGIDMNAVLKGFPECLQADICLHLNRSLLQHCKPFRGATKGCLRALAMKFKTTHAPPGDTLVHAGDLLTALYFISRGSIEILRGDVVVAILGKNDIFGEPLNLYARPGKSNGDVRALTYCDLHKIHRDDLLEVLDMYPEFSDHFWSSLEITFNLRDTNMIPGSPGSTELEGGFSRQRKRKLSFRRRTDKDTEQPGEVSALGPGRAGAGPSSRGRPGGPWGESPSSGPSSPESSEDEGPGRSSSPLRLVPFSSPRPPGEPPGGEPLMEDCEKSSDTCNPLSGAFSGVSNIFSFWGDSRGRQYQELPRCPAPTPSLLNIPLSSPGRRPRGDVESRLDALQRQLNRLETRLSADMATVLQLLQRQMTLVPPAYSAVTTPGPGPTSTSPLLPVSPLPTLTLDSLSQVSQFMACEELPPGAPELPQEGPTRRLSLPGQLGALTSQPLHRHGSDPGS
Method: Instrumentation: HEKA EPC 10 patch clamp amplifier.
Method: in this experiment, the blocking effect of the compounds on the current of the HEK-293 cell line stably expressing hERG channel was measured using the manual patch clamp technique, and the risk of the compounds on the inhibition of cardiac hERG potassium channel was assessed by fitting the concentration effect relationship.
Procedure: in the patch clamp operation, firstly, a capillary glass tube was pulled into a recording electrode using a microelectrode puller, then an electrode filled with intracellular solution was mounted into a microelectrode holder. A microelectrode manipulator was operated under an inverted microscope to immerse the electrode into an extracellular solution and the electrode resistance (Rpip) was recorded. Then, the electrode was slowly brought into contact with the cell surface, and a negative pressure was applied for suction to form a GΩ seal. At this point, a fast capacitance compensation was performed, and a negative pressure was continuously applied to suck and break the cell membrane to form a whole cell recording mode. Finally, a slow capacitance compensation was performed and experimental parameters including series resistance (Rs) and the like were recorded. No leakage compensation was performed. When the hERG current recorded by the whole cell was stable, the administration of drugs commenced, and each drug concentration acted for about 5 min (or until the current stabilization) before detecting the next concentration. A cover glass covered with cells was placed in a recording bath under an inverted microscope, the blank control extracellular solution and the working solution of the compounds to be tested sequentially flowed through the recording bath from low concentration to high concentration by using gravity perfusion to act on the cells, and solution exchange was performed using a peristaltic pump during recording. The current measured by each cell in the extracellular solution without the compound served as its own control group. Each concentration was independently assessed twice. All electrophysiological tests were performed at room temperature.
Data Analysis: firstly, the tail current (Peak tail currentcompound) after the action of each drug concentration and the blank control tail current (Peak tail currentcontrol) were normalized, then the inhibition rate
corresponding to each drug concentration was calculated, and the mean (Mean), standard deviation (SD) and standard error (SE) of the inhibition rate corresponding to each concentration were calculated, with data expressed as Mean±SE. The calculation of IC50 value and the fitting of dose-response curve for the compound were performed using GraphPad Prism software.

[6] = target: TYK2 JH2 pseudokinase (Homo sapiens, UniProt P29597); test: TYK2 JH2 enzyme binding assay in vitro (TR-FRET)
Chain of TYK2 JH2 pseudokinase (P29597 589-875 limits assumed): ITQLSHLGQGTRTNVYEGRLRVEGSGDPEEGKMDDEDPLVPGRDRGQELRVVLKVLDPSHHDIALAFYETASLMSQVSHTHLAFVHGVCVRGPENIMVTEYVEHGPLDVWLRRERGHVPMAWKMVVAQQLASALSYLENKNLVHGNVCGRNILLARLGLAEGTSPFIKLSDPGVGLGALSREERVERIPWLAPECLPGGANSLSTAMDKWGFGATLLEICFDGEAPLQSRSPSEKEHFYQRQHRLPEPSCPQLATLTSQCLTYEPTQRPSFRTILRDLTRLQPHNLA
Method: Instrumentation: Envision microplate reader (PerkinElmer), ECHO550 (LABCYTE).
Method: the inhibitory effects of compounds on TYK2 JH2 pseudokinase was tested using time-resolved fluorescence resonance energy transfer (TR-FRET) method.
Procedure: compounds were prepared into 10 mM stock solutions using DMSO, which were further diluted into compound dilutions (200×) with different concentration gradients in DMSO, and the compound dilutions (200×) were transferred to a 384-well assay plate using an Echo instrument. […] TYK2 JH2 pseudokinase, Tb antibody, and Tracer working solutions were prepared using the dilution buffer, respectively. 5 uL of TYK2 JH2 pseudokinase working solution (final concentration 0.5 nM) was added to a 384-well assay plate, and centrifuged at 1000 rpm for 30 s. 5 uL of Tb antibody (final concentration 1×) was added to the 384-well assay plate, and centrifuged at 1000 rpm for 30 s. 5 uL of Tracer (final concentration 0.5 nM) was added to the 384-well assay plate, and centrifuged at 1000 rpm for 30 s. Incubation was performed at room temperature for 60 min, and then at 4° C. overnight.
Data Analysis: XLfit, a software developed by IDBS and integrated into the Microsoft Excel environment, was used to process and analyze the test data.

[7] = target: JAK1 JH2 pseudokinase (Homo sapiens, UniProt P23458); test: JAK1 JH2 enzyme binding assay in vitro (TR-FRET); conditions: read-out: JAK 1 JH2 IC50
Chain of JAK1 JH2 pseudokinase (P23458 583-855 limits assumed): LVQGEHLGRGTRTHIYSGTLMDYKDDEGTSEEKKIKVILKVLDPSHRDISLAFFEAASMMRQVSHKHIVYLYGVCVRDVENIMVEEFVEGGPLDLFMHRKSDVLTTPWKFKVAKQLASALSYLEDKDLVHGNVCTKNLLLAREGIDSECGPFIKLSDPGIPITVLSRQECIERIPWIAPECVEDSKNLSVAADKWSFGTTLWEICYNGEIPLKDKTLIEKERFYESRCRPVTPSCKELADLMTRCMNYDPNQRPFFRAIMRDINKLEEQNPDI
Method: Instrumentation: Envision microplate reader (PerkinElmer), Echo (LABCYTE)
Method: in this experiment, the inhibitory effects of compounds on JAK1 JH2 pseudokinase was tested using time-resolved fluorescence resonance energy transfer (TR-FRET) method.
Procedure: compounds were prepared into 10 mM stock solutions using DMSO, which were further diluted into compound dilutions with different concentration gradients in DMSO, and the compound dilutions with 200× final concentration were transferred to a 384-well assay plate using an Echo instrument. The preparation of the following 1× assay working solution: HEPES pH7.5 at a final concentration of 20 mM, MgCl2 at a final concentration of 10 mM, Brij-35 at a final concentration of 0.015%, DTT at a final concentration of 2 mM, BSA at a final concentration of 50 ug/mL. JAK1 JH2 pseudokinase with 3× final concentration, Tb antibody and Tracer were prepared using their respective 1× working solution. 5 uL of JAK1 JH2 pseudokinase was added to a 384-well assay plate, and centrifuged at 1000 rpm for 30 s. 5 uL of Tb antibody was added to the 384-well assay plate, and centrifuged at 1000 rpm for 30 s. 5 uL of Tracer was added to the 384-well assay plate, and centrifuged at 1000 rpm for 30 s. Incubation was performed at room temperature for 60 min, and then at 4° C. overnight. Finally, the 495 nm/520 nm fluorescence signal ratio was measured using the Envision microplate reader (PerkinElmer).
Data Analysis: XLfit, a software developed by IDBS and integrated into the Microsoft Excel environment, was used to process and analyze the test data. […] Thereafter, the concentration and corresponding inhibition rate data were imported into the XLfit software, and the Dose Response One Site 205 model within the software was employed to fit the inhibition rate-concentration curve by four-parameter method, and the IC50 value of the compound was calculated.

[8] = target: JAK1 JH1 kinase (Homo sapiens, UniProt P23458); test: JAK1 JH1 enzyme assay in vitro (TR-FRET); format: biochemical; conditions: read-out: JAK 1 JH1 IC50
Chain of JAK1 JH1 kinase (P23458 875-1153 limits assumed): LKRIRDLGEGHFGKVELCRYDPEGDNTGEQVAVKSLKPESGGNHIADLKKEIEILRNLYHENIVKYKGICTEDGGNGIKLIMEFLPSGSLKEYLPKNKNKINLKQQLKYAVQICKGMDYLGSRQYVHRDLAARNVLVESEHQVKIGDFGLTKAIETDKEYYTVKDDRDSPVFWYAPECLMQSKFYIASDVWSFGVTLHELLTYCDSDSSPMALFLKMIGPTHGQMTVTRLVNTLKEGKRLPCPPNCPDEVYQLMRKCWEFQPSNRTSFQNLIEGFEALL

[9] = target: JAK2 JH1 kinase (Homo sapiens, UniProt O60674); test: JAK2 JH1 enzyme assay in vitro (TR-FRET); format: biochemical; conditions: read-out: JAK 2 JH1 IC50
Chain of JAK2 JH1 kinase (O60674 849-1124 limits assumed): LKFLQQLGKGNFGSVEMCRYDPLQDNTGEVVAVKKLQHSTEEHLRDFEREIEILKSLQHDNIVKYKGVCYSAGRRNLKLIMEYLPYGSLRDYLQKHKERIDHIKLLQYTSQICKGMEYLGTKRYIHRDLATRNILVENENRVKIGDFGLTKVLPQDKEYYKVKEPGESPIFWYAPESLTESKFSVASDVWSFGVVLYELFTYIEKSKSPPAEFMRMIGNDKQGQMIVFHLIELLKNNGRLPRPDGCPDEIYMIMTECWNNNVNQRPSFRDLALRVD

[10] = target: T2, TYK2 JH1 kinase (Homo sapiens, UniProt P29597); test: TYK2 JH1 enzyme assay in vitro (TR-FRET); format: biochemical
T2 sequence (P29597 897-1176 limits assumed): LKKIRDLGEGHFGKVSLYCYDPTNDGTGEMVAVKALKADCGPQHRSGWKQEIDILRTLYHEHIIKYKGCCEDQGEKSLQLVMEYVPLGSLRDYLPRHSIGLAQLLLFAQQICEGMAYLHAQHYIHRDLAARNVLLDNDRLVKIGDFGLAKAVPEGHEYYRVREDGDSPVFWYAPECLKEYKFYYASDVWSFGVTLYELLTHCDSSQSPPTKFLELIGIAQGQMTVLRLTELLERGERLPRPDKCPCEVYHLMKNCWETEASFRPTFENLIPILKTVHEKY

[11] = TR-FRET, read-out: JAK 3 JH1 IC50

Chain of JAK3 JH1 kinase (P52333 822-1111 limits assumed): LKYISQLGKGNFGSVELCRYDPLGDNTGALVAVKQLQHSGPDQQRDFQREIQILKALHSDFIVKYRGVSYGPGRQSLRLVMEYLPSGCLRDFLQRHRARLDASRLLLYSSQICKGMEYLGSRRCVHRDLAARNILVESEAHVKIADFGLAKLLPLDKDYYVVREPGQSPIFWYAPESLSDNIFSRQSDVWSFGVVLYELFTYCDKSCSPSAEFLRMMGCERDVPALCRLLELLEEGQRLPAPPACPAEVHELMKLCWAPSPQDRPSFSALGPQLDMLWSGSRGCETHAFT

| SMILES | IC50 [1] [nM] | Hematology Gran [2] | Hematology Lymph [2] | Hematology Mono [2] | Percentage reduction in PASI score % ([3]; day 7, 10 mg/kg, oral, day 1 to 6) | GI50 [4] [nM] | hERG inhibition [5] | IC50 [6] [nM] | IC50 [7] [nM] | IC50 [8] [nM] | IC50 [9] [nM] | IC50 [1, 11] [nM] | IC50 [10] [nM] | Improvement of psoriasis symptoms by oral administration [3] |
| --- | --- | --- | --- | --- | --- | --- | --- | --- | --- | --- | --- | --- | --- | --- |
| [2H]C([2H])([2H])NC(=O)c1nnc(NC(=O)C2CC2)cc1Nc1cccc(-c2ncn(C)n2)c1OC([2H])([2H])[2H] [BMS-986165, reference compound] | > 10000 | 1.6 ± 0.6 ×10^9/L | 3.6 ± 0.8 ×10^9/L | 0.2 ± 0.0 ×10^9/L | 30.1** % | – | – | – | – | – | – | – | – | – |
| [2H]C([2H])([2H])NC(=O)c1cnc(NC(=O)C2CC2)cc1Nc1cccc(C(=O)Nc2ccc(F)cc2)c1OC [Example 57, 6-(Cyclopropanecarboxamido)-4-((3-((4-fluorophenyl)carbamoyl)-2-methoxyphenyl)amino)-N-(methyl-d3)nicotinamide] | – | – | – | – | – | 1 to 5 | no significant inhibition | 0.284 | 5.68 | > 10000 | > 10000 | > 10000 | > 10000 | effectively improve psoriasis symptoms |
| [2H]C([2H])([2H])NC(=O)c1cnc(NC(=O)C2CC2)cc1Nc1cccc(C(=O)Nc2ccc(C)c(C)c2)c1OC [Example 62] | – | – | – | – | – | 1 to 5 | no significant inhibition | 0.277 | 14.3 | > 10000 | > 10000 | > 10000 | > 10000 | effectively improve psoriasis symptoms |
| [2H]C([2H])([2H])NC(=O)c1cnc(NC(=O)C2CC2)cc1Nc1cccc(C(=O)Nc2cnn(C)c2)c1OC [Example 86] | – | – | – | – | – | 1 to 5 | no significant inhibition | 0.299 | 17.6 | > 10000 | > 10000 | > 10000 | > 10000 | effectively improve psoriasis symptoms |
| [2H]C([2H])([2H])NC(=O)c1cnc(NC(=O)C2CC2)cc1Nc1cccc(C(=O)Nc2cncc(C)c2)c1OC [Example 91] | – | – | – | – | – | 1 to 5 | no significant inhibition | 0.312 | 3.29 | > 10000 | > 10000 | > 10000 | > 10000 | effectively improve psoriasis symptoms |
